From PMC10600239, “Selective MCL-1 inhibitor ABBV-467 is efficacious in tumor models but is associated with cardiac troponin increases in patients” (Communications Medicine, 2023)
Like-named read-outs stand apart in the source and are kept apart here.

Legend:
Test in all cases: Off-target profiling (Supplementary Data 1)
[1] = biological target: off-target receptors, ion channels, and transporters (Homo sapiens, UniProt P45983); conditions: TR-FRET Kinome; Invitrogen A-1196442.2 .1(Subs Conc)
[2] = biological target: off-target receptors, ion channels, and transporters (Homo sapiens, UniProt Q9BYT3); conditions: TR-FRET Kinome; Invitrogen A-1167389.7 .05(Subs Conc)
[3] = biological target: off-target receptors, ion channels, and transporters (Homo sapiens, UniProt P30542)
[4] = biological target: off-target receptors, ion channels, and transporters; conditions: for EC50: Bioprofiling 6pt Ag
[5] = biological target: off-target receptors, ion channels, and transporters (Homo sapiens, UniProt O60674); conditions: TR-FRET Kinome; Invitrogen A-1167389.7 .006(Subs Conc)
[6] = biological target: off-target receptors, ion channels, and transporters (Homo sapiens, UniProt P08913)
[7] = biological target: off-target receptors, ion channels, and transporters (Homo sapiens, UniProt P28482); conditions: TR-FRET Kinome; Invitrogen A-1224127.6 .05(Subs Conc)
[8] = biological target: off-target receptors, ion channels, and transporters (Homo sapiens, UniProt P51955); conditions: TR-FRET Kinome; Invitrogen A-1196581.2 .025(Subs Conc)
[9] = biological target: off-target receptors, ion channels, and transporters (Homo sapiens, UniProt P35372)
[10] = biological target: off-target receptors, ion channels, and transporters (Homo sapiens, UniProt P51812); conditions: TR-FRET Kinome; Invitrogen A-1169612.6 .0015(Subs Conc)
[11] = biological target: off-target receptors, ion channels, and transporters (Homo sapiens, UniProt P09619); conditions: TR-FRET Kinome; Invitrogen A-1169612.6 .025(Subs Conc)
[12] = biological target: off-target receptors, ion channels, and transporters (Homo sapiens, UniProt O00141); conditions: TR-FRET Kinome; Millipore A-1213250.2 .03(Subs Conc)
[13] = biological target: off-target receptors, ion channels, and transporters (Homo sapiens, UniProt Q9H4B4); conditions: TR-FRET Kinome; Invitrogen A-1224615.7 .2(Subs Conc)
[14] = biological target: off-target receptors, ion channels, and transporters (Homo sapiens, UniProt O43353); conditions: TR-FRET Kinome; Millipore A-1499319.7 .1(Subs Conc)
[15] = biological target: off-target receptors, ion channels, and transporters (Homo sapiens, UniProt Q07912); conditions: TR-FRET Kinome; Invitrogen A-1169612.6 .025(Subs Conc)
[16] = biological target: off-target receptors, ion channels, and transporters (Homo sapiens, UniProt Q8IU85); conditions: TR-FRET Kinome; Invitrogen A-1167389.7 .025(Subs Conc)
[17] = biological target: off-target receptors, ion channels, and transporters (Homo sapiens, UniProt P49841); conditions: TR-FRET Kinome; Invitrogen A-1169612.6 .006(Subs Conc)
[18] = biological target: off-target receptors, ion channels, and transporters (Homo sapiens, UniProt Q96RR4); conditions: TR-FRET Kinome; Invitrogen A-1167389.7 .005(Subs Conc)
[19] = biological target: off-target receptors, ion channels, and transporters (Homo sapiens, UniProt Q13043); conditions: TR-FRET Kinome; Invitrogen A-1167389.7 .025(Subs Conc)
[20] = biological target: off-target receptors, ion channels, and transporters (Homo sapiens, UniProt Q9UM73); conditions: TR-FRET Kinome; Millipore A-1167389.7 .05(Subs Conc)
[21] = biological target: off-target receptors, ion channels, and transporters (Homo sapiens, UniProt P35367)
[22] = biological target: off-target receptors, ion channels, and transporters (Homo sapiens, UniProt P42680); conditions: TR-FRET Kinome; SignalChem A-1214384.2 .02(Subs Conc)
[23] = biological target: off-target receptors, ion channels, and transporters (Homo sapiens, UniProt P24530)
[24] = biological target: off-target receptors, ion channels, and transporters (Homo sapiens, UniProt P30291); conditions: TR-FRET Kinome; Carna Biosciences A-1248830.7 .015(Subs Conc)
[25] = biological target: off-target receptors, ion channels, and transporters (Homo sapiens, UniProt P37231); conditions: Bioprofiling 6pt Ag

Sequence of off-target receptors, ion channels, and transporters (Homo sapiens, UniProt P24530) (P24530 27-442): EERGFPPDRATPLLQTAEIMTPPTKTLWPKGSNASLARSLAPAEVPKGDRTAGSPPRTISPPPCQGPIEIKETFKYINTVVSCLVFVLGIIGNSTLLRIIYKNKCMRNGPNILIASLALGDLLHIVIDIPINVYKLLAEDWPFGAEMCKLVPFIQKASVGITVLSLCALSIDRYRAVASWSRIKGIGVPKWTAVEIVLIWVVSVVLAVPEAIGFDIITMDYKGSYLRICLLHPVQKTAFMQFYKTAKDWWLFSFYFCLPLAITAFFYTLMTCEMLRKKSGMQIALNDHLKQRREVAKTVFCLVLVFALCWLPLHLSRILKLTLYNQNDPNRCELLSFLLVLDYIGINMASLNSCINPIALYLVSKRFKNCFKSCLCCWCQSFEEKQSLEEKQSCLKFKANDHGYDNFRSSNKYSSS
Sequence of off-target receptors, ion channels, and transporters (Homo sapiens, UniProt P35367) (P35367 whole entry): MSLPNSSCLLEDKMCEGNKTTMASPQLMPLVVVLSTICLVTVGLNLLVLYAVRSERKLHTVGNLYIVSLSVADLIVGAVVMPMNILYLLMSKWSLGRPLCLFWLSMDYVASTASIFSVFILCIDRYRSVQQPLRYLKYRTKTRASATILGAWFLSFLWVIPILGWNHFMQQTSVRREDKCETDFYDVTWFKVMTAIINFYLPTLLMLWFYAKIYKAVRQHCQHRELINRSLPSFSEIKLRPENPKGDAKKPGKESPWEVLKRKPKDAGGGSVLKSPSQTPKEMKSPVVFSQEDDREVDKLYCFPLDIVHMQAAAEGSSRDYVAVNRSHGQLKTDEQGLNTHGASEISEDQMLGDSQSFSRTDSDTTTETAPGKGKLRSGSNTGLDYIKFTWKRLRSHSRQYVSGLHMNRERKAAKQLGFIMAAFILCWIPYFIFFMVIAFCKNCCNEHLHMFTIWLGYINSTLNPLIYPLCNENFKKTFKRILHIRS
Sequence of off-target receptors, ion channels, and transporters (Homo sapiens, UniProt P30542) (P30542 whole entry): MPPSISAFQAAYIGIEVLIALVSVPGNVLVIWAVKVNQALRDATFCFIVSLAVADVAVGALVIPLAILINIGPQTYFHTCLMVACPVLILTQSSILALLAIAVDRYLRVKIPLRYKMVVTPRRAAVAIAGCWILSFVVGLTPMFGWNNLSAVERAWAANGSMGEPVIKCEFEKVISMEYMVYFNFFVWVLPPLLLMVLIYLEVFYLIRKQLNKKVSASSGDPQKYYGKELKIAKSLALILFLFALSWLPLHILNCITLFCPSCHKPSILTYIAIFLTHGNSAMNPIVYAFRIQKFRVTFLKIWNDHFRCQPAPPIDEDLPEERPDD
Sequence of off-target receptors, ion channels, and transporters (Homo sapiens, UniProt P08913) (P08913 whole entry): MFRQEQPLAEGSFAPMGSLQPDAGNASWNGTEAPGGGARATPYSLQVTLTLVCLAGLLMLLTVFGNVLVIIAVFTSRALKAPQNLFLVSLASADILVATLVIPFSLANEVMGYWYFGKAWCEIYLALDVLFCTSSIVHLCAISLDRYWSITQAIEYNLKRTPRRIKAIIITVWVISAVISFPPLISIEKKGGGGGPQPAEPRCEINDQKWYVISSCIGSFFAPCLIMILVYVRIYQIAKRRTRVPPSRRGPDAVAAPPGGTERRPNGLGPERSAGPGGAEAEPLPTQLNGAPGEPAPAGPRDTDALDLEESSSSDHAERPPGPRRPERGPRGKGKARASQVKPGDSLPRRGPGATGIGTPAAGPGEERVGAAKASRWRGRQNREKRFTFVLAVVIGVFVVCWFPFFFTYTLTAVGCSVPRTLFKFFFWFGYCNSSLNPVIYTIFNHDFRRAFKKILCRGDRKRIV
Sequence of off-target receptors, ion channels, and transporters (Homo sapiens, UniProt P35372) (P35372 whole entry): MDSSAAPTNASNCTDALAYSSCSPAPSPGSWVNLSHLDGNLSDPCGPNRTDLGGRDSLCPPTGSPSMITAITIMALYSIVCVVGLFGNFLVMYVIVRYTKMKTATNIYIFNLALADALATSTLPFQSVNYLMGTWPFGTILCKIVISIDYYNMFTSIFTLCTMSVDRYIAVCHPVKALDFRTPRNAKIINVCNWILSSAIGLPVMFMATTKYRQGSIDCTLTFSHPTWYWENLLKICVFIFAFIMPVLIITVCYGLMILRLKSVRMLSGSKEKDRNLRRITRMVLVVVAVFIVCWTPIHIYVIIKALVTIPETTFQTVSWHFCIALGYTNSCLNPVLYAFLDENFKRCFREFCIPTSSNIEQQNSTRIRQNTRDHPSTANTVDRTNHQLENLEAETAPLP
Sequence of off-target receptors, ion channels, and transporters (Homo sapiens, UniProt P42680) (P42680 whole entry): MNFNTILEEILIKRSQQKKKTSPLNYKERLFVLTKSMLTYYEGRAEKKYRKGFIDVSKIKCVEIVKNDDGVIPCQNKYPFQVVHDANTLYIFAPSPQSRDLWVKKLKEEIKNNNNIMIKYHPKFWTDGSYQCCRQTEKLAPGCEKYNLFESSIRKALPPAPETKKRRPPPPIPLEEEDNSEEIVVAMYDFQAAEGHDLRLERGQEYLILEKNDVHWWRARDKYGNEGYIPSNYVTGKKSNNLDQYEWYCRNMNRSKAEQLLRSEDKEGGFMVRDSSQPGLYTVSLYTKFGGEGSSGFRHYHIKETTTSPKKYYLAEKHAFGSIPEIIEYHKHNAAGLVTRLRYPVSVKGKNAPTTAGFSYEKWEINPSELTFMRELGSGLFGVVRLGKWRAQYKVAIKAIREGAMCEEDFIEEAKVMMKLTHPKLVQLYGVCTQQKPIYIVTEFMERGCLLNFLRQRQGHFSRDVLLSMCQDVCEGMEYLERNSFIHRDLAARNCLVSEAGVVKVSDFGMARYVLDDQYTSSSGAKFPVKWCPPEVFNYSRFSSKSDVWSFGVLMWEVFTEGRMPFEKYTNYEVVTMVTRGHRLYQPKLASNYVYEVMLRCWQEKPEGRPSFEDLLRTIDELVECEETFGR
Sequence of off-target receptors, ion channels, and transporters (Homo sapiens, UniProt P09619) (P09619 33-1106): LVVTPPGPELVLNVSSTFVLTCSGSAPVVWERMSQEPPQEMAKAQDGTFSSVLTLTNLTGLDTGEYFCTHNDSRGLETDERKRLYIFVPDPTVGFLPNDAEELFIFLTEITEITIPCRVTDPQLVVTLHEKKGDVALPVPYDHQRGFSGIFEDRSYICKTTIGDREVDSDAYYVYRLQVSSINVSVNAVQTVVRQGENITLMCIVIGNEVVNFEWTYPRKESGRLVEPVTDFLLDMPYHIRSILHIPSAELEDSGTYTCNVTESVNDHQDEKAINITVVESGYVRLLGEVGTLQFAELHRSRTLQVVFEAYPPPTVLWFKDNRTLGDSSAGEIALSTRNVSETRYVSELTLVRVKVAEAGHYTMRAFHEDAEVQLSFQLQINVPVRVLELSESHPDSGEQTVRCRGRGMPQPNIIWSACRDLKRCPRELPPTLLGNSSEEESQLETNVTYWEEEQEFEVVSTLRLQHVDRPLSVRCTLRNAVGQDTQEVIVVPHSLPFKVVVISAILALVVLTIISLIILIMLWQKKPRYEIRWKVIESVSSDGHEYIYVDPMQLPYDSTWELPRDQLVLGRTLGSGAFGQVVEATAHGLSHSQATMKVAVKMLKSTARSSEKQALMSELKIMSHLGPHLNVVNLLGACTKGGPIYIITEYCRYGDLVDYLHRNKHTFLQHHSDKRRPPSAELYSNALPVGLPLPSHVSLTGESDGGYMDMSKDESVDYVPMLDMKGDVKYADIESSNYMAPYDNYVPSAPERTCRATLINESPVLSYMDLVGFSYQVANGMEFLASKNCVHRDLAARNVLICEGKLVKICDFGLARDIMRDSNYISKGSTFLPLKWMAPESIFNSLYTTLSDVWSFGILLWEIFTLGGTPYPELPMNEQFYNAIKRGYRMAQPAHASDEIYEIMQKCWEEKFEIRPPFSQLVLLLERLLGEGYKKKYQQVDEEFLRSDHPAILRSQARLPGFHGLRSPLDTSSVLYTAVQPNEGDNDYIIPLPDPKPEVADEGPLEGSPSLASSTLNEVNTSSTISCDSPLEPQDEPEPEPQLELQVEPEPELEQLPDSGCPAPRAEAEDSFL
Sequence of off-target receptors, ion channels, and transporters (Homo sapiens, UniProt P49841) (P49841 whole entry): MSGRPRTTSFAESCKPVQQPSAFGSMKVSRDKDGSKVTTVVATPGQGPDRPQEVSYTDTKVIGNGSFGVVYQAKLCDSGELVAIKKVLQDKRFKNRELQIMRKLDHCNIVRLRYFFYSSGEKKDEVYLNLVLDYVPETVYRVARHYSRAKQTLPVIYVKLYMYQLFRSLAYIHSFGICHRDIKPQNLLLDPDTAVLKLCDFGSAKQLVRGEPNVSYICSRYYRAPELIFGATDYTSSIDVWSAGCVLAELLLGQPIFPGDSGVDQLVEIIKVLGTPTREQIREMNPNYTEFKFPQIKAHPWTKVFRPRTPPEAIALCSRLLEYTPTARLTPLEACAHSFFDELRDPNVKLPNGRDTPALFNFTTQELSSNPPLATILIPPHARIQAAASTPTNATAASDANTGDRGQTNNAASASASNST
Sequence of off-target receptors, ion channels, and transporters (Homo sapiens, UniProt Q9BYT3) (Q9BYT3 whole entry): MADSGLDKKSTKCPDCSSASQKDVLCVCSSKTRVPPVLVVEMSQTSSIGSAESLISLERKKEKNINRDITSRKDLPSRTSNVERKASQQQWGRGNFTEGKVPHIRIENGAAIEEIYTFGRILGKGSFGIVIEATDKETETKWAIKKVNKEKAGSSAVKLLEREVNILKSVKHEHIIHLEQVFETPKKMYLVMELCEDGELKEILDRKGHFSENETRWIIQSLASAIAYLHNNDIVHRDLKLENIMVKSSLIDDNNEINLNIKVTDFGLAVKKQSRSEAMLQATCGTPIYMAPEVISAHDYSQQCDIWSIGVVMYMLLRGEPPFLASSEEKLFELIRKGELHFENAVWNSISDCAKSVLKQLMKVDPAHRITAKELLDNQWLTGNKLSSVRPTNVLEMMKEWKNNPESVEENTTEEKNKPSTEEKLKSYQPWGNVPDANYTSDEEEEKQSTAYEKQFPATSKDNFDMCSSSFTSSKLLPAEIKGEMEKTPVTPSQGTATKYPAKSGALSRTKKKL

Cc1c(Cl)c2c(Cl)c(C)c1-c1c(-c3ccc(F)cc3)sc3ncnc(c13)O[C@@H](C(=O)O)Cc1cc(ccc1OCc1ccnc(-c3ccc(OC[C@H]4COCCO4)cc3)n1)OC[C@@H](CN1CCN(C)CC1)O2 [ABBV-467]
> 10 µM: JNK1 - IC50 [1] | STK33 - IC50 [2] | A1 CHO Human - EC50 ([3]; Bioprofiling 6pt Ag) | A1 CHO Human - IC50 ([3]; Bioprofiling 6pt Antag, N6-Cyclopentyladenosine (CPA)) | EC50 ([4]; read-out: CHO Hamster - EC50) | EC50 ([4]; read-out: Cav1.2 (L-type) ND7/23 Mouse/Rat - EC50) | IC50 ([4]; read-out: Cav1.2 (L-type) ND7/23 Mouse/Rat - IC50, Bioprofiling 6pt Antag, KCl) | JAK2 - IC50 [5] | EC50 ([6]; read-out: Alpha2A CHO Human - EC50, Bioprofiling 6pt Ag) | IC50 ([6]; read-out: Alpha2A CHO Human - IC50, Bioprofiling 6pt Antag, UK-14304) | Erk2 - IC50 [7] | Nek2 - IC50 [8] | Opioid mu CHO Human - EC50 ([9]; Bioprofiling 6pt Ag) | Opioid mu CHO Human - IC50 ([9]; Bioprofiling 6pt Antag, DAMGO) | Rsk2 - IC50 [10] | PDGFRB - IC50 [11] | SGK1 - IC50 [12] | Plk3 - IC50 [13] | RIPK2 - IC50 [14] | TNK2 - IC50 [15] | CAMK1D - IC50 [16] | CAMKK2 - IC50 [18] | MST1 - IC50 [19] | ALK - IC50 [20] | H1 CHO Human - EC50 ([21]; Bioprofiling 6pt Ag) | H1 CHO Human - IC50 ([21]; Bioprofiling 6pt Antag, Histamine) | TEC - IC50 [22] | ETB CHO Human - EC50 ([23]; Bioprofiling 6pt Ag) | ETB CHO Human - IC50 ([23]; Bioprofiling 6pt Antag, BQ-3020) | Wee1 - IC50 [24] | PPARgamma Human - EC50 [25]
9.9 µM: Gsk3b - IC50 [17]
